Laboratory results taken from patent US12065692B2, “Optical super-multiplexing by polyynes” (The Trustees of Columbia University in the City of New York, priority 2017, dated 2024).

Tested on: live HeLa cells
Experiment: Live-cell SRS imaging of organelle-targeted polyynes and co-localization with fluorescent organelle markers
Type: cell-based
Description: FIG. 9 is live-cell SRS imaging of organelle-targeted polyynes and co-localization with fluorescent organelle markers. […] High co-localizations are also observed between organelle-targeted polyynes with commercial fluorescent markers;
HeLa cells are cultured on a glass coverslip in a 4-well plate for 24 h, and […] Carbow2141 Mito is added in the media for 1 h at 37° C. Cells are washed with PBS for three times before imaging. For co-localization, 100 nM MitoTracker Deep Red is used to stain mitochondria for 1 h.
Cells were cultured on a glass coverslip in a 4-well plate for 24 h, and 4 μM Carbow2141 Lyso is added to cells for 30 min at 37° C. Cells are washed with PBS for three times before imaging. For co-localization, 100 nM LysoTracker Red (Invitrogen, L7528) is used to stain lysosome for 30 min.
Cell are incubated with 3 μM Carbow2141 PM in the culture media for 20 min at 37° C. and are washed with PBS for three times before imaging. For co-localization, 0.5 μg/mL CellMask Deep Red (Invitrogen, C10046) is used to stain cell membrane for 5 min.
Cells were cultured on a glass coverslip in a 4-well plate for 24 h and incubated with 10 μM Carbow2226 ER for 2 h at 37° C. Cells were washed with PBS for three times before imaging. For colocalization, 1 μM ERTracker Green (Invitrogen, E34251) was used to stain endoplasmic reticulum for 2 h. […]

O=C(NCCC[P+](c1ccccc1)(c1ccccc1)c1ccccc1)OCc1ccc(C#CC#CC#CC#Cc2ccccc2)cc1 [4-yne Mito]
organelle localization / co-localization with fluorescent markers: specific localization to mitochondria
